± gives the standard deviation of the averaged measurements.
Columns and labels:
Test in all cases: normalised growth rate inhibition (GR value) relative to DMSO control (GR (1 = untreated growth, 0 = cytostasis, <0 = cytotoxic)); higher = less growth inhibition
Conditions in all cases: 72 h
[1] = system: BT20
In short: (§1)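 Six breast cell lines were seeded in 384-well plates and dosed 24 h later with drugs at 0.04–10 µM for 72 h. Cells were stained with Hoechst 33342 and Fixable Far Red Dead Cell Stain, fixed in 3% formaldehyde and imaged on an Operetta; viable cells were counted in Columbus. Normalised growth rate inhibition was computed from counts relative to same-plate DMSO wells and a day-0 plate. Technical plate replicates (generally three) were averaged.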

[2] = system: MDAMB231
In short: as §1

[3] = system: SKBR3
In short: as §1

[4] = system: MCF10A
In short: as §1

[5] = system: MCF7
In short: as §1

[6] = system: HS578T
In short: as §1

Compound | normalised growth rate inhibition ([1]; 0.04 µM) | normalised growth rate inhibition ([1]; 0.12 µM) | normalised growth rate inhibition ([1]; 0.37 µM) | normalised growth rate inhibition ([1]; 1.11 µM) | normalised growth rate inhibition ([1]; 3.33 µM) | normalised growth rate inhibition ([1]; 10 µM) | normalised growth rate inhibition ([2]; 0.04 µM) | normalised growth rate inhibition ([2]; 0.12 µM) | normalised growth rate inhibition ([2]; 0.37 µM) | normalised growth rate inhibition ([2]; 1.11 µM) | normalised growth rate inhibition ([2]; 3.33 µM) | normalised growth rate inhibition ([2]; 10 µM) | normalised growth rate inhibition ([3]; 0.04 µM) | normalised growth rate inhibition ([3]; 0.12 µM) | normalised growth rate inhibition ([3]; 0.37 µM) | normalised growth rate inhibition ([3]; 1.11 µM) | normalised growth rate inhibition ([3]; 3.33 µM) | normalised growth rate inhibition ([3]; 10 µM) | normalised growth rate inhibition ([4]; 0.04 µM) | normalised growth rate inhibition ([4]; 0.12 µM) | normalised growth rate inhibition ([4]; 0.37 µM) | normalised growth rate inhibition ([4]; 1.11 µM) | normalised growth rate inhibition ([4]; 3.33 µM) | normalised growth rate inhibition ([4]; 10 µM) | normalised growth rate inhibition ([5]; 0.04 µM) | normalised growth rate inhibition ([5]; 0.12 µM) | normalised growth rate inhibition ([5]; 0.37 µM) | normalised growth rate inhibition ([5]; 1.11 µM) | normalised growth rate inhibition ([5]; 3.33 µM) | normalised growth rate inhibition ([5]; 10 µM) | normalised growth rate inhibition ([6]; 0.04 µM) | normalised growth rate inhibition ([6]; 0.12 µM) | normalised growth rate inhibition ([6]; 0.37 µM) | normalised growth rate inhibition ([6]; 1.11 µM) | normalised growth rate inhibition ([6]; 3.33 µM) | normalised growth rate inhibition ([6]; 10 µM)
Cn1cc(C2=C(c3cn(C4CCN(Cc5ccccn5)CC4)c4ccccc34)C(=O)NC2=O)c2ccccc21 [enzastaurin] | 1.01 ± 0.1 | 1.03 ± 0.057 | 1.07 ± 0.043 | 1.07 ± 0.079 | 1.13 ± 0.057 | 1.19 ± 0.062 | 1 ± 0.023 | 1.01 ± 0.035 | 1 ± 0.048 | 1 ± 0.071 | 1.01 ± 0.036 | 1.03 ± 0.079 | 1.1 ± 0.097 | 1.07 ± 0.085 | 1.1 ± 0.033 | 1.06 ± 0.033 | 1.07 ± 0.056 | 0.958 ± 0.18 | 1.006 ± 0.0093 | 1 ± 0.014 | 1 ± 0.018 | 1.02 ± 0.03 | 1.01 ± 0.061 | 0.985 ± 0.11 | 0.978 ± 0.052 | 0.999 ± 0.035 | 1.01 ± 0.035 | 0.946 ± 0.039 | 0.936 ± 0.084 | 0.693 ± 0.31 | 1.02 ± 0.027 | 0.998 ± 0.018 | 1 ± 0.028 | 1.02 ± 0.027 | 1.01 ± 0.019 | 0.935 ± 0.035
COc1cc2ncnc(-n3nc(-c4ccccn4)nc3N)c2cc1OC | 1.07 ± 0.0067 | 1.03 ± 0.032 | 1.01 ± 0.036 | 1.02 ± 0.014 | 0.954 ± 0.047 | 0.588 ± 0.22 | 1.05 ± 0.057 | 1.02 ± 0.058 | 0.785 ± 0.4 | 0.938 ± 0.041 | 0.903 ± 0.1 | 0.534 ± 0.25 | 1.16 ± 0.032 | 1.05 ± 0.033 | 1.04 ± 0.069 | 0.95 ± 0.13 | 0.871 ± 0.17 | 0.479 ± 0.44 | 1.018 ± 0.01 | 1.01 ± 0.014 | 1.008 ± 0.0099 | 0.994 ± 0.011 | 0.972 ± 0.018 | 0.729 ± 0.26 | 1.09 ± 0.051 | 1.04 ± 0.045 | 1.05 ± 0.083 | 1.01 ± 0.1 | 0.918 ± 0.14 | 0.499 ± 0.41 | 1.035 ± 0.0072 | 1.04 ± 0.021 | 1.05 ± 0.033 | 1.02 ± 0.053 | 0.978 ± 0.083 | 0.686 ± 0.15
CCN(CC)CCCCNc1ncc2cc(-c3cc(OC)cc(OC)c3)c(NC(=O)NC(C)(C)C)nc2n1 | 1.1 ± 0.039 | 1.08 ± 0.058 | 1.09 ± 0.056 | 1.14 ± 0.066 | 1.16 ± 0.049 | 0.853 ± 0.18 | 1.08 ± 0.053 | 1.07 ± 0.032 | 1.08 ± 0.079 | 1.07 ± 0.054 | 1.04 ± 0.018 | 0.0514 ± 0.23 | 1.14 ± 0.12 | 1.12 ± 0.13 | 1.08 ± 0.085 | 1.13 ± 0.12 | 1.12 ± 0.11 | 0.209 ± 0.2 | 1.022 ± 0.0032 | 1.005 ± 0.0025 | 0.9981 ± 0.0038 | 0.9929 ± 0.0079 | 0.984 ± 0.016 | 0.644 ± 0.15 | 1.1 ± 0.066 | 1.08 ± 0.029 | 1.04 ± 0.078 | 1.1 ± 0.066 | 1.1 ± 0.12 | 0.572 ± 0.16 | 0.852 ± 0.074 | 0.824 ± 0.083 | 0.835 ± 0.074 | 0.846 ± 0.061 | 0.809 ± 0.071 | 0.164 ± 0.14
Cn1cc(-c2[nH]c3cc(NC(=O)[C@H](N)C4CCCCC4)cc4c3c2C=NNC4=O)cn1 | 0.886 ± 0.045 | 0.96 ± 0.035 | 0.9538 ± 0.0067 | 0.931 ± 0.027 | 0.8 ± 0.063 | 0.129 ± 0.15 | 0.903 ± 0.039 | 0.913 ± 0.087 | 0.747 ± 0.14 | 0.535 ± 0.21 | 0.297 ± 0.22 | -0.0135 ± 0.14 | -0.00482 ± 0.19 | -0.09 ± 0.2 | -0.136 ± 0.17 | -0.151 ± 0.18 | -0.174 ± 0.14 | -0.183 ± 0.2 | 0.9601 ± 0.0087 | 0.914 ± 0.022 | 0.83 ± 0.037 | 0.63 ± 0.071 | 0.267 ± 0.17 | -0.0312 ± 0.061 | 0.579 ± 0.056 | 0.411 ± 0.041 | 0.335 ± 0.04 | 0.235 ± 0.032 | 0.178 ± 0.018 | 0.0527 ± 0.038 | 0.956 ± 0.018 | 0.601 ± 0.064 | 0.107 ± 0.12 | -0.0219 ± 0.17 | -0.0376 ± 0.14 | -0.103 ± 0.15
Cc1cc(Nc2cc(N3CCN(C)CC3)nc(Sc3ccc(NC(=O)C4CC4)cc3)n2)n[nH]1 [tozasertib] | 0.385 ± 0.12 | 0.0628 ± 0.1 | -0.0205 ± 0.094 | -0.0318 ± 0.12 | -0.0355 ± 0.11 | -0.0179 ± 0.11 | 0.0769 ± 0.023 | 0.056 ± 0.045 | 0.0918 ± 0.037 | 0.0708 ± 0.039 | 0.0979 ± 0.038 | 0.1 ± 0.13 | -0.143 ± 0.11 | -0.117 ± 0.076 | -0.0975 ± 0.11 | -0.082 ± 0.1 | -0.0918 ± 0.1 | -0.044 ± 0.1 | 0.395 ± 0.2 | 0.145 ± 0.087 | 0.124 ± 0.056 | 0.118 ± 0.064 | 0.0967 ± 0.04 | 0.0692 ± 0.053 | 0.0704 ± 0.017 | 0.0656 ± 0.024 | 0.0723 ± 0.044 | 0.0794 ± 0.022 | 0.0768 ± 0.026 | 0.0394 ± 0.0083 | 0.123 ± 0.11 | 0.0776 ± 0.12 | 0.108 ± 0.13 | 0.0732 ± 0.11 | 0.105 ± 0.12 | 0.0498 ± 0.077
FC(F)c1nc2ccccc2n1-c1nc(N2CCOCC2)nc(N2CCOCC2)n1 [ZSTK-474] | 0.971 ± 0.029 | 0.855 ± 0.16 | 0.615 ± 0.27 | 0.211 ± 0.17 | 0.0764 ± 0.14 | -0.0662 ± 0.025 | 0.881 ± 0.062 | 0.828 ± 0.055 | 0.728 ± 0.025 | 0.646 ± 0.061 | 0.511 ± 0.077 | 0.386 ± 0.11 | 0.783 ± 0.087 | 0.46 ± 0.06 | 0.161 ± 0.1 | 0.0252 ± 0.12 | -0.0251 ± 0.15 | -0.031 ± 0.13 | 0.954 ± 0.065 | 0.842 ± 0.12 | 0.698 ± 0.16 | 0.472 ± 0.083 | 0.296 ± 0.049 | 0.179 ± 0.069 | 0.664 ± 0.2 | 0.37 ± 0.18 | 0.138 ± 0.048 | 0.0423 ± 0.065 | 0.00162 ± 0.071 | -0.0168 ± 0.11 | 0.806 ± 0.017 | 0.663 ± 0.032 | 0.522 ± 0.088 | 0.394 ± 0.12 | 0.289 ± 0.1 | 0.148 ± 0.11
C[C@@H]1C[C@H]2O[C@@H]2/C=C\C=C\C(=O)Cc2c(Cl)c(O)cc(O)c2C(=O)O1 [radicicol] | 0.839 ± 0.08 | 0.395 ± 0.11 | 0.115 ± 0.088 | -0.0176 ± 0.13 | -0.0598 ± 0.11 | -0.163 ± 0.097 | 1.06 ± 0.035 | 0.744 ± 0.084 | 0.298 ± 0.12 | 0.0741 ± 0.12 | 0.0054 ± 0.14 | -0.0299 ± 0.12 | 0.329 ± 0.053 | 0.0873 ± 0.083 | 0.0279 ± 0.1 | -0.0112 ± 0.14 | -0.0134 ± 0.1 | -0.166 ± 0.053 | 0.886 ± 0.075 | 0.598 ± 0.21 | 0.299 ± 0.15 | 0.104 ± 0.021 | -0.0227 ± 0.054 | -0.182 ± 0.1 | 0.574 ± 0.059 | 0.262 ± 0.033 | 0.124 ± 0.04 | 0.123 ± 0.036 | 0.115 ± 0.035 | -0.0962 ± 0.041 | 1.029 ± 0.01 | 0.95 ± 0.091 | 0.704 ± 0.27 | 0.321 ± 0.19 | 0.0951 ± 0.08 | 0.049 ± 0.12

Source: the supplement of paper PMC5662764
